According to patent publication US10040781B2, “Tank-binding kinase inhibitor compounds” (Gilead Sciences, Inc., priority 2014, dated 2018):

What was measured:
hJAK2 = hJAK2 (Homo sapiens (Human), UniProt O60674); experiment: hJAK2 LANCE TR-FRET enzymatic assay; assay type: biochemical; settings: read-out: JAK2 IC50
TBK1 = TBK1 (Homo sapiens (Human), UniProt Q9UHD2); experiment: TBK1 TR-FRET enzymatic assay;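 also: phosphorylation of a biotinylated Ser/Thr peptide by purified full-length recombinant TBK1, read by TR-FRET after 240 min at 25 °C, IC50 is the geometric mean of at least four runs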
IKKε = IKKε (Homo sapiens (Human), UniProt Q14164); experiment: IKKε TR-FRET enzymatic assay; assay type: biochemical; settings: read-out: IKKe IC50
Sequence of IKKε (Q14164 whole entry): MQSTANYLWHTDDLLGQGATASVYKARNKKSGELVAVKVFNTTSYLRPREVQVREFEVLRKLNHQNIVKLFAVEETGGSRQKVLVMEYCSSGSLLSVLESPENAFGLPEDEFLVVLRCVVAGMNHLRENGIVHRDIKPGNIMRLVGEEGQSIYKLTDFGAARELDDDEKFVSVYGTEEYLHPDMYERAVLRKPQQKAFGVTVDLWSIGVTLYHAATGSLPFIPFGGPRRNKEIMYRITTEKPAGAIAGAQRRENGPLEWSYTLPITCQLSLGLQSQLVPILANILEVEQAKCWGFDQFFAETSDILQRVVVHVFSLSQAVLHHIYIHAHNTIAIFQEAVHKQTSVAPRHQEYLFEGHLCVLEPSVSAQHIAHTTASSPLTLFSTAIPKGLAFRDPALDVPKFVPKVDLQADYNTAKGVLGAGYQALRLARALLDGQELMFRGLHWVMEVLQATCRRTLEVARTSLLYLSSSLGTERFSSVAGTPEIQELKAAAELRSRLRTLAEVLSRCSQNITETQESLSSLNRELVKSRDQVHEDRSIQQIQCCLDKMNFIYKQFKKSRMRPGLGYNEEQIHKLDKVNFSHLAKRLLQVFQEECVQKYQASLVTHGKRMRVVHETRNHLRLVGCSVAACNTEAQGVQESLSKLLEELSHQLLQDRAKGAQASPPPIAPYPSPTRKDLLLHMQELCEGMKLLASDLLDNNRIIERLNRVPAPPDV

Sequence of hJAK2 (O60674 whole entry): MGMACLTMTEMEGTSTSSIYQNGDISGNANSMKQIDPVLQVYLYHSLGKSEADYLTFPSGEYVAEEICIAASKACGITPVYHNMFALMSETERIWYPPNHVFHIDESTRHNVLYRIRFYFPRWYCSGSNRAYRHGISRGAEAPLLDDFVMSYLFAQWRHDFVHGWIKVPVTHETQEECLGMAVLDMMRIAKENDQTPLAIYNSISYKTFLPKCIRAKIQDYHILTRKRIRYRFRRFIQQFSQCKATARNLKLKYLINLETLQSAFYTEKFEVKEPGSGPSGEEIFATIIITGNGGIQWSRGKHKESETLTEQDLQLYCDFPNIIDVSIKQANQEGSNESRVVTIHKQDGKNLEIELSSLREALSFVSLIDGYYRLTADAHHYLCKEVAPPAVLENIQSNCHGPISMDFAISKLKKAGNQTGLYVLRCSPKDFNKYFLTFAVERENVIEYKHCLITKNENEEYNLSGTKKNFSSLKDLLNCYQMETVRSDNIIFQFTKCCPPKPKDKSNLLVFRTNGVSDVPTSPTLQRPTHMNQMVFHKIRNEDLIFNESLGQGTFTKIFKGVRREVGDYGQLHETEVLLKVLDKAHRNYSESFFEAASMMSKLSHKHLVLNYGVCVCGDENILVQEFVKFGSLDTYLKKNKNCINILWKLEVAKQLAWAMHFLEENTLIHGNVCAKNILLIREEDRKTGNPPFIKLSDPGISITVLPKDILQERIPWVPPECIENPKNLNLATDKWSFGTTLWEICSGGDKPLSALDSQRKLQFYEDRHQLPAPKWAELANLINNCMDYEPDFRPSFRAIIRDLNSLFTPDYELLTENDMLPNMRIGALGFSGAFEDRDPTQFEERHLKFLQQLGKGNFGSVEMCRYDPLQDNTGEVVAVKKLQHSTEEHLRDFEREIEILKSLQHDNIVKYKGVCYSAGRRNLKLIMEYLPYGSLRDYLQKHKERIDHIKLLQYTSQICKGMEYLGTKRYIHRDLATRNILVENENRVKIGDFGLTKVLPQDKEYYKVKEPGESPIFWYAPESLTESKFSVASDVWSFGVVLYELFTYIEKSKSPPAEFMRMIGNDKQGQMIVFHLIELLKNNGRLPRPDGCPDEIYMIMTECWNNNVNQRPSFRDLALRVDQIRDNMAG
Sequence of TBK1 (Q9UHD2 whole entry): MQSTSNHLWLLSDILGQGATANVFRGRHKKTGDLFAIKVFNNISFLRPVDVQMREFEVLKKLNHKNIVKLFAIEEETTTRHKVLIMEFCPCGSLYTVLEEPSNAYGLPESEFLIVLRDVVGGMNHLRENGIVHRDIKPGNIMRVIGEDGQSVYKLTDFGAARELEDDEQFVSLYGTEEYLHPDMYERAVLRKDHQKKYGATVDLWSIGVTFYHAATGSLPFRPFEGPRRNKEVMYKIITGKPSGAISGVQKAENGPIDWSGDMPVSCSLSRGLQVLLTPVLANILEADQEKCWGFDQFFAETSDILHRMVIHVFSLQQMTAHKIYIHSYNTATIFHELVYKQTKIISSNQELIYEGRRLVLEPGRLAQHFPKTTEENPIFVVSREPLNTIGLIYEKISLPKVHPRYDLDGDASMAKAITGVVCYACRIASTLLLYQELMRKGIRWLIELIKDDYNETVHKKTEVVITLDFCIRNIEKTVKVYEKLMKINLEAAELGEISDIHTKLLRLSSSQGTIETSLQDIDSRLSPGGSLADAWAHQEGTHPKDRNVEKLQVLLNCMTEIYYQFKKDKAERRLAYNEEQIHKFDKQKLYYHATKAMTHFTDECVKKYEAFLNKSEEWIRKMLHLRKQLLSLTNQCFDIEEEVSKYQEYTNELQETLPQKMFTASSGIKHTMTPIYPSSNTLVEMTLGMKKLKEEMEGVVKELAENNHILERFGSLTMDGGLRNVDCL

Row | SMILES | IC50 (hJAK2) [nM] | IC50 (TBK1) [nM] | IC50 (IKKε) [nM]
1 | N#Cc1cc(-c2ncnc(Nc3ccc(N4CCO[C@@H](CO)C4)cc3)n2)ccc1OC1CCNCC1(F)F (stereo partly drawn) [Example 226, 2-((3,3-difluoropiperidin-4-yl)oxy)-5-(4-((4-((R)-2-(hydroxymethyl)morpholino)phenyl)amino)-1,3,5-triazin-2-yl)benzonitrile] | 311 | 5 | 29
2 | N#Cc1cc(-c2ncnc(Nc3ccc(N4CCO[C@@H](CO)C4)cc3)n2)ccc1OC1CCN(C(=O)CO)CC1 [Example 227, (R)-2-((1-(2-hydroxyacetyl)piperidin-4-yl)oxy)-5-(4-((4-(2-(hydroxymethyl)morpholino)phenyl)amino)-1,3,5-triazin-2-yl)benzonitrile] | 333 | 2 | 4
3 | CC(=O)N1CC[C@H](Oc2ccc(-c3ncnc(Nc4ccc(N5CCO[C@@H](CO)C5)cc4)n3)cc2C#N)C(F)(F)C1 [Example 230, 2-(((5)-1-acetyl-3,3-difluoropiperidin-4-yl)oxy)-5-(4-((4-((R)-2-(hydroxymethyl)morpholino)phenyl)amino)-1,3,5-triazin-2-yl)benzonitrile] | 233 | 4 | 2
4 | C[C@H](O)C(=O)N1CC[C@H](Oc2ccc(-c3ncnc(Nc4ccc(N5CCO[C@@H](CO)C5)cc4)n3)cc2C#N)[C@H](F)C1 [Example 231, 2-(((3R,4S)-3-fluoro-1-((S)-2-hydroxypropanoyl)piperidin-4-yl)oxy)-5-(4-((4-((R)-2-(hydroxymethyl)morpholino)phenyl)amino)-1,3,5-triazin-2-yl)benzonitrile] | 486 | 3 | 1
5 | C[C@H](O)C(=O)N1CC[C@H](Oc2ccc(-c3ncnc(Nc4ccc(N5CCO[C@H](CO)C5)cc4)n3)cc2C#N)[C@H](F)C1 [Example 233, 2-(((3R,4S)-3-fluoro-1-((S)-2-hydroxypropanoyl)piperidin-4-yl)oxy)-5-(4-((4-((S)-2-(hydroxymethyl)morpholino)phenyl)amino)-1,3,5-triazin-2-yl)benzonitrile] | 333 | 2 | 1
6 | N#Cc1cc(-c2ncnc(Nc3ccc(N4CCN(C5COC5)CC4)cc3)n2)ccc1O[C@@H]1CCNC[C@H]1F [Example 236, 2-(((3R,4R)-3-fluoropiperidin-4-yl)oxy)-5-(4-((4-(4-(oxetan-3-yl)piperazin-1-yl)phenyl)amino)-1,3,5-triazin-2-yl)benzonitrile] | 723 | 58 | 233
7 | N#Cc1cc(-c2ncnc(Nc3ccc(N4CCN(C5COC5)CC4)cc3)n2)ccc1O[C@H]1CCNC[C@H]1F [Example 239, 2-(((3R,4S)-3-fluoropiperidin-4-yl)oxy)-5-(4-((4-(4-(oxetan-3-yl)piperazin-1-yl)phenyl)amino)-1,3,5-triazin-2-yl)benzonitrile] | 409 | 8 | 59
8 | C[C@@H]1CN(C2COC2)CCN1c1ccc(Nc2ncnc(-c3ccc(O[C@H]4CCN(C(=O)CO)C[C@H]4F)c(C#N)c3)n2)cc1 [Example 242, 2-(((3R,4S)-3-fluoro-1-(2-hydroxyacetyl)piperidin-4-yl)oxy)-5-(4-((4-((R)-2-methyl-4-(oxetan-3-yl)piperazin-1-yl)phenyl)amino)-1,3,5-triazin-2-yl)benzonitrile] | 249 | 2 | 1
9 | C[C@@H]1CN(c2ccc(Nc3ncnc(-c4ccc(O[C@@H]5CCN(C(=O)[C@@H](C)O)CC5(F)F)c(C#N)c4)n3)cc2)CCN1C1COC1 [Example 247, 2-(((R)-3,3-difluoro-1-((R)-2-hydroxypropanoyl)piperidin-4-yl)oxy)-5-(4-((4-((R)-3-methyl-4-(oxetan-3-yl)piperazin-1-yl)phenyl)amino)-1,3,5-triazin-2-yl)benzonitrile] | 333 | 233 | 397
10 | C[C@H](O)C(=O)N1CC[C@H](Oc2ccc(-c3ncnc(Nc4ccc(N5CCN(C6COC6)C[C@@H]5C)cc4)n3)cc2C#N)[C@H](F)C1 [Example 249, 2-(((3R,4S)-3-fluoro-1-((S)-2-hydroxypropanoyl)piperidin-4-yl)oxy)-5-(4-((4-((S)-2-methyl-4-(oxetan-3-yl)piperazin-1-yl)phenyl)amino)-1,3,5-triazin-2-yl)benzonitrile] | 389 | 3 | 2
11 | C[C@H]1CN(C2COC2)CCN1c1ccc(Nc2ncnc(-c3ccc(O[C@H]4CCN(C(=O)CCO)C[C@H]4F)c(C#N)c3)n2)cc1 [Example 251, 2-(((3R,4S)-3-fluoro-1-(3-hydroxypropanoyl)piperidin-4-yl)oxy)-5-(4-((4-((S)-2-methyl-4-(oxetan-3-yl)piperazin-1-yl)phenyl)amino)-1,3,5-triazin-2-yl)benzonitrile] | 369 | 5 | 14

Further lines, results first:

Row | IC50 (hJAK2) [nM] | IC50 (TBK1) [nM] | IC50 (IKKε) [nM] | SMILES
12 | 206 | 1 | 2 | C[C@H](O)C(=O)N1CCC(Oc2ccc(-c3ncnc(Nc4ccc(N5CCO[C@@H](CO)C5)cc4)n3)cc2C#N)C(F)(F)C1 (stereo partly drawn) [Example 228, 2-((3,3-difluoro-1-((S)-2-hydroxypropanoyl)piperidin-4-yl)oxy)-5-(4-((4-((R)-2-(hydroxymethyl)morpholino)phenyl)amino)-1,3,5-triazin-2-yl)benzonitrile]
13 | 128 | 2 | 1 | N#Cc1cc(-c2ncnc(Nc3ccc(N4CCO[C@H](CO)C4)cc3)n2)ccc1O[C@H]1CCN(C(=O)CO)C[C@H]1F [Example 232, 2-(((3R,4S)-3-fluoro-1-(2-hydroxyacetyl)piperidin-4-yl)oxy)-5-(4-((4-((S)-2-(hydroxymethyl)morpholino)phenyl)amino)-1,3,5-triazin-2-yl)benzonitrile]
14 | 199 | 1 | 1 | N#Cc1cc(-c2ncnc(Nc3ccc(N4CCN(C5COC5)CC4)c(F)c3)n2)ccc1O[C@H]1CCN(C(=O)CO)C[C@H]1F [Example 240, 2-(((3R,4S)-3-fluoro-1-(2-hydroxyacetyl)piperidin-4-yl)oxy)-5-(4-((3-fluoro-4-(4-(oxetan-3-yl)piperazin-1-yl)phenyl)amino)-1,3,5-triazin-2-yl)benzonitrile]
15 | 191 | 3 | 1 | C[C@H]1CN(C2COC2)CCN1c1ccc(Nc2ncnc(-c3ccc(O[C@H]4CCN(C(=O)CO)C[C@H]4F)c(C#N)c3)n2)cc1 [Example 244, 2-(((3R,4S)-3-fluoro-1-(2-hydroxyacetyl)piperidin-4-yl)oxy)-5-(4-((4-((S)-2-methyl-4-(oxetan-3-yl)piperazin-1-yl)phenyl)amino)-1,3,5-triazin-2-yl)benzonitrile]
16 | 181 | 2 | 1 | C[C@H](O)C(=O)N1CC[C@H](Oc2ccc(-c3ncnc(Nc4ccc(N5CCN(C6COC6)[C@H](C)C5)cc4)n3)cc2C#N)C(F)(F)C1 [Example 246, 2-(((S)-3,3-difluoro-1-((S)-2-hydroxypropanoyl)piperidin-4-yl)oxy)-5-(4-((4-((R)-3-methyl-4-(oxetan-3-yl)piperazin-1-yl)phenyl)amino)-1,3,5-triazin-2-yl)benzonitrile]
17 | 187 | 3 | 3 | C[C@@H]1CN(c2ccc(Nc3ncnc(-c4ccc(O[C@H]5CCN(C(=O)[C@@H](C)O)CC5(F)F)c(C#N)c4)n3)cc2)CCN1C1COC1 [Example 248, 2-(((S)-3,3-difluoro-1-((R)-2-hydroxypropanoyl)piperidin-4-yl)oxy)-5-(4-((4-((R)-3-methyl-4-(oxetan-3-yl)piperazin-1-yl)phenyl)amino)-1,3,5-triazin-2-yl)benzonitrile]
18 | 127 | 3 | 5 | C[C@H]1CN(C2COC2)CCN1c1ccc(Nc2ncnc(-c3ccc(O[C@H]4CCN(C(=O)CC#N)C[C@H]4F)c(C#N)c3)n2)cc1 [Example 250, 2-(((3R,4S)-1-(2-cyanoacetyl)-3-fluoropiperidin-4-yl)oxy)-5-(4-((4-((S)-2-methyl-4-(oxetan-3-yl)piperazin-1-yl)phenyl)amino)-1,3,5-triazin-2-yl)benzonitrile]
19 | 213 | 3 | 1 | C[C@H](O)C(=O)N1CC[C@H](Oc2ccc(-c3ncnc(Nc4ccc(N5CCN(C6COC6)C[C@@H]5C)cc4)n3)cc2C#N)C(F)(F)C1 [Example 252, 2-(((S)-3,3-difluoro-1-((S)-2-hydroxypropanoyl)piperidin-4-yl)oxy)-5-(4-((4-((S)-2-methyl-4-(oxetan-3-yl)piperazin-1-yl)phenyl)amino)-1,3,5-triazin-2-yl)benzonitrile]
20 | 61 | 3 | 2 | C[C@H]1CN(C2COC2)CCN1c1ccc(Nc2ncnc(-c3ccc(O[C@H]4CCN(C(=O)CC#N)CC4(F)F)c(C#N)c3)n2)cc1 [Example 253, 2-(((S)-1-(2-cyanoacetyl)-3,3-difluoropiperidin-4-yl)oxy)-5-(4-((4-((S)-2-methyl-4-(oxetan-3-yl)piperazin-1-yl)phenyl)amino)-1,3,5-triazin-2-yl)benzonitrile]
21 | 151 | 3 | 5 | C[C@H]1CN(C2COC2)CCN1c1ccc(Nc2ncnc(-c3ccc(O[C@H]4CCN(C(=O)CCO)CC4(F)F)c(C#N)c3)n2)cc1 [Example 254, 2-(((S)-3,3-difluoro-1-(3-hydroxypropanoyl)piperidin-4-yl)oxy)-5-(4-((4-((S)-2-methyl-4-(oxetan-3-yl)piperazin-1-yl)phenyl)amino)-1,3,5-triazin-2-yl)benzonitrile]
22 | 227 | 4 | 2 | C[C@H]1CN(C2COC2)CCN1c1ccc(Nc2ncnc(-c3ccc(O[C@H]4CCN(C(=O)c5cnn[nH]5)C[C@H]4F)c(C#N)c3)n2)cc1 [Example 255, 2-(((3R,4S)-3-fluoro-1-(1H-1,2,3-triazole-5-carbonyl)piperidin-4-yl)oxy)-5-(4-((4-((S)-2-methyl-4-(oxetan-3-yl)piperazin-1-yl)phenyl)amino)-1,3,5-triazin-2-yl)benzonitrile]
